Two molecules from patent publication US11400059B2, “Treatment of pain and/or pain related symptoms associated with dysmenorrhea” (ALYRA BIOTECH PTY LTD, priority 2017, dated 2022) can be followed below.

Molecules are shown by their SMILES.

One data set addresses T1, Human TLR8 (Homo sapiens, UniProt Q9NR97).
T1 construct: expressed in transfected cells; host or cells: HEK293
T1 sequence (Q9NR97 27-1041): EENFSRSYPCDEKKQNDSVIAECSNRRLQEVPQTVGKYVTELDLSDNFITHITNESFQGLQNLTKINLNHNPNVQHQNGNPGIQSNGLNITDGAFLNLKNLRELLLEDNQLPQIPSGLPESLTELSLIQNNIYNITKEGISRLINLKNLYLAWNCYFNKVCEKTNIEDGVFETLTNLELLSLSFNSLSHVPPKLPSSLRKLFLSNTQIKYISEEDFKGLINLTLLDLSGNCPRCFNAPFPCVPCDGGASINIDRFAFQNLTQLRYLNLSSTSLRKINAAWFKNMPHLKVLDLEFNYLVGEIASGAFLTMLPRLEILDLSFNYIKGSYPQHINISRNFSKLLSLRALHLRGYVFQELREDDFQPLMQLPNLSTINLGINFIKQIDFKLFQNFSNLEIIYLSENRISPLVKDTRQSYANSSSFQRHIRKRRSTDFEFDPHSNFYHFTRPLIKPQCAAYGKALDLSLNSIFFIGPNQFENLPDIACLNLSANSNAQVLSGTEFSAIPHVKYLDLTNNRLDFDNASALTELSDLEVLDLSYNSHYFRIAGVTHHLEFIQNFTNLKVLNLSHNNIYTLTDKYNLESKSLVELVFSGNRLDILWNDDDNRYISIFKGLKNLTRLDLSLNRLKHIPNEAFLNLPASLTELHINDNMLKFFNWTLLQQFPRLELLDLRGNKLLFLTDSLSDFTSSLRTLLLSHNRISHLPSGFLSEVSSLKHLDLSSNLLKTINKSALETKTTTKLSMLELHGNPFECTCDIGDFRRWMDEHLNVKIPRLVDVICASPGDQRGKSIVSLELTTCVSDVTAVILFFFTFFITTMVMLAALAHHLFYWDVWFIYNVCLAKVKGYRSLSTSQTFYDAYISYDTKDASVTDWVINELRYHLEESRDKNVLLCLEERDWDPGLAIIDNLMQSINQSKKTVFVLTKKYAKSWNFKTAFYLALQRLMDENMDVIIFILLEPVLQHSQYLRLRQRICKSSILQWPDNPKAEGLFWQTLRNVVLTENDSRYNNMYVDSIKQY
Description: Human TLR antagonist screening, NF-κB SEAP reporter in HEK293 cells. It counts as cell-based. Particulars: antagonist mode, test article 1 μM, +CL075 200 ng/ml, No Sample 13, Control− 1. The procedure:
Toll-Like Receptor (TLR), NOD-Like Receptor (NLR) and C-Type Lectin Receptor (CLR) stimulation were tested by assessing NF-κB activation in HEK293 cells expressing a given TLR, NLR or CLR. The activity of the test articles was tested at one concentration and compared to control ligands. These steps were performed in triplicate. hTLR8: […] In a 96-well plate (200 μL total volume) containing the appropriate cells (50,000-75,000 cells/well), 20 μL of the test article or the positive control ligand was added to the wells. For the antagonist assay, the test article was incubated with the cells, at 37° C. with 5% CO2, for 30 minutes prior to the addition of the positive control ligand to the wells. The media added to the wells was designed for the detection of NF-κB induced SEAP expression. After a 16-24 hr incubation the optical density (OD) was read at 650 nm on a Molecular Devices SpectraMax 340PC absorbance detector. Fold induction (ratio of average induced value to average non-induced value) was determined for each TLR, NOD1, NOD2, Dectin-1a, Dectin-1b.

The next data set addresses T2, hTLR9 (Homo sapiens, UniProt Q9NR96).
T2 construct: expressed in transfected cells; host or cells: HEK293
T2 sequence (Q9NR96 26-1032): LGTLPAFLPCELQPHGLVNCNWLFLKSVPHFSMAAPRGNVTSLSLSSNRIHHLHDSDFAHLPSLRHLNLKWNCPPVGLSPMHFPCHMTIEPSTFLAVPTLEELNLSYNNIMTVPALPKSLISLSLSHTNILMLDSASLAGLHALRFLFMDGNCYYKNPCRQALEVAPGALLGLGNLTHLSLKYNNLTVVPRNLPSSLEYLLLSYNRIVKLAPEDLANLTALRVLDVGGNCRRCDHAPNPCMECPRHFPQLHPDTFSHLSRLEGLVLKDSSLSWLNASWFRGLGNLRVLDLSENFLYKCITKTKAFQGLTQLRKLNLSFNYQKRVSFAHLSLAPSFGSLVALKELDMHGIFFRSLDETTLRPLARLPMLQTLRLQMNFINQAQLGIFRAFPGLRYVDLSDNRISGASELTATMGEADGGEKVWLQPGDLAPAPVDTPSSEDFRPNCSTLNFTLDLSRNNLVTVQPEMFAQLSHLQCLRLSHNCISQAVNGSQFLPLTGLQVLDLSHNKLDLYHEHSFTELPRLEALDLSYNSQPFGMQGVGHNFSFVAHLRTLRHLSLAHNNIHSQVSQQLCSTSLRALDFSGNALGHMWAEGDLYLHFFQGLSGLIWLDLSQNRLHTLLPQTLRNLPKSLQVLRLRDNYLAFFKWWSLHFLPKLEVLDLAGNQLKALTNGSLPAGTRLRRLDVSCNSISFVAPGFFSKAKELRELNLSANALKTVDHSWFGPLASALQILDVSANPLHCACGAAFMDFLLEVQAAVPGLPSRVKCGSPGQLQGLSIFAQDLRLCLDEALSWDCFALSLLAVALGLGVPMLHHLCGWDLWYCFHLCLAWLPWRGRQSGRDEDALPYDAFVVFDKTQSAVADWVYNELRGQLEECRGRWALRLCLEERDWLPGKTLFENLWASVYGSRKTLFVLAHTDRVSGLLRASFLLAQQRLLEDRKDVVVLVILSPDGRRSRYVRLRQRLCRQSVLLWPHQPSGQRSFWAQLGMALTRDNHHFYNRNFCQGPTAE
The data set is described as above. Format: cell-based. The settings on record: antagonist mode, test article 1 μM, +ODN 2006 500 ng/ml; No Sample 7, Control− 1. The procedure: Toll-Like Receptor (TLR), NOD-Like Receptor (NLR) and C-Type Lectin Receptor (CLR) stimulation were tested by assessing NF-κB activation in HEK293 cells expressing a given TLR, NLR or CLR. The activity of the test articles was tested at one concentration and compared to control ligands. These steps were performed in triplicate. hTLR9: CpG ODN 2006 at 1 μg/mL Antagonist: 500 ng/mL. In a 96-well plate (200 μL total volume) containing the appropriate cells (50,000-75,000 cells/well), 20 μL of the test article or the positive control ligand was added to the wells. For the antagonist assay, the test article was incubated with the cells, at 37° C. with 5% CO2, for 30 minutes prior to the addition of the positive control ligand to the wells. The media added to the wells was designed for the detection of NF-κB induced SEAP expression. After a 16-24 hr incubation the optical density (OD) was read at 650 nm on a Molecular Devices SpectraMax 340PC absorbance detector. Fold induction (ratio of average induced value to average non-induced value) was determined for each TLR, NOD1, NOD2, Dectin-1a, Dectin-1b.

On to `CNCCC=C1c2ccccc2CCc2ccccc21` [Nortriptyline], for which the “Fold Induction” value at Human TLR8 is reported as “slight inhibitory effect”; on Human TLR8 (listed as Nor), 11; on hTLR9, “slight inhibitory effect”.

In the case of `CN(C)CCC=C1c2ccccc2CCc2ccccc21` [Amitriptyline], the results for the “Fold Induction” value on Human TLR8, at Human TLR8 (listed as Ami) and at hTLR9 were “slight inhibitory effect”, 11 and “slight inhibitory effect”, respectively.
